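Interpolation was linear, between the two tested concentrations surrounding the appropriate level; five concentrations were tested over 48 hours in 96-well plates. GI50 = concentration required for 50% inhibition of growth.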 Activity calls are given as the source filed them. No stated cut-off is given here; in the data, active = GI50 up to about 1.1 µM and inactive = higher.
What was measured:
Experiment in all cases: inhibition of tumour cell growth, NCI panel, 48 h
786-0 = system: 786-0
A498 = system: A498
A549 = system: A549
ACHN = system: ACHN
BT-549 = system: BT-549
CCRF-CEM = system: CCRF-CEM
COLO 205 = system: COLO 205
DU-145 = system: DU-145
EKVX = system: EKVX
HCC 2998 = system: HCC 2998
HCT-116 = system: HCT-116
HCT-15 = system: HCT-15
HL-60 = system: HL-60
HOP-62 = system: HOP-62
HOP-92 = system: HOP-92
HT-29 = system: HT-29
Hs-578T = system: Hs-578T
IGROV-1 = system: IGROV-1
K562 = system: K562
KM12 = system: KM12
M14 = system: M14
MCF7 = system: MCF7
MDA-MB-231 = system: MDA-MB-231
MDA-MB-435 = system: MDA-MB-435
MDA-N = system: MDA-N
MOLT-4 = system: MOLT-4
Malme-3M = system: Malme-3M
NCI-H226 = system: NCI-H226
NCI-H23 = system: NCI-H23
NCI-H460 = system: NCI-H460
NCI-H522 = system: NCI-H522
NCI/ADR-RES = system: NCI/ADR-RES
OVCAR-3 = system: OVCAR-3
OVCAR-4 = system: OVCAR-4
OVCAR-5 = system: OVCAR-5
OVCAR-8 = system: OVCAR-8
PC-3 = system: PC-3
RPMI-8226 = system: RPMI-8226
RXF 393 = system: RXF 393
SF-268 = system: SF-268
SF-295 = system: SF-295
SF-539 = system: SF-539
SK-MEL-28 = system: SK-MEL-28
SK-MEL-2 = system: SK-MEL-2
SK-MEL-5 = system: SK-MEL-5
SK-OV-3 = system: SK-OV-3
SN12C = system: SN12C
SNB-19 = system: SNB-19
SNB-75 = system: SNB-75
SR = system: SR
SW-620 = system: SW-620
T47D = system: T47D
TK-10 = system: TK-10
U-251 = system: U-251
UACC-257 = system: UACC-257
UACC-62 = system: UACC-62
UO-31 = system: UO-31
CAKI-1 = system: CAKI-1
LOX IMVI = system: LOX IMVI

Structure (SMILES): CC(C)(Cl)C(Br)CC/C(=C/CCl)CBr.CC(C)(Cl)C(Br)CC/C(=C\CCl)CBr (configuration not stated)
- GI50 (786-0): 1.86 µM (inactive)
- GI50 (A498): 4.94 µM (inactive)
- GI50 (A549): 14.4 µM (inactive)
- GI50 (ACHN): 2.77 µM (inactive)
- GI50 (BT-549): 3.05 µM (inactive)
- GI50 (CCRF-CEM): 1.32 µM (inactive)
- GI50 (COLO 205): 2.4 µM (inactive)
- GI50 (DU-145): 3.32 µM (inactive)
- GI50 (EKVX): 8.97 µM (inactive)
- GI50 (HCC 2998): 1.58 µM (inactive)
- GI50 (HCT-116): 1.77 µM (inactive)
- GI50 (HCT-15): 1.43 µM
- GI50 (HL-60): 0.802 µM (active)
- GI50 (HOP-62): 4.1 µM (inactive)
- GI50 (HOP-92): 2.07 µM (inactive)
- GI50 (HT-29): 1.85 µM (inactive)
- GI50 (Hs-578T): 3.67 µM (inactive)
- GI50 (IGROV-1): 2.31 µM (inactive)
- GI50 (K562): 1.72 µM (inactive)
- GI50 (KM12): 1.83 µM (inactive)
- GI50 (M14): 1.9 µM (inactive)
- GI50 (MCF7): 0.733 µM (active)
- GI50 (MDA-MB-231): 1.74 µM (inactive)
- GI50 (MDA-MB-435): 2 µM (inactive)
- GI50 (MDA-N): 1.64 µM (inactive)
- GI50 (MOLT-4): 1.34 µM (inactive)
- GI50 (Malme-3M): 1.71 µM (inactive)
- GI50 (NCI-H226): 18.7 µM (inactive)
- GI50 (NCI-H23): 1.91 µM (inactive)
- GI50 (NCI-H460): 2.02 µM (inactive)
- GI50 (NCI-H522): 0.998 µM (active)
- GI50 (NCI/ADR-RES): 3.23 µM (inactive)
- GI50 (OVCAR-3): 1.87 µM (inactive)
- GI50 (OVCAR-4): 2.34 µM (inactive)
- GI50 (OVCAR-5): 8.89 µM (inactive)
- GI50 (OVCAR-8): 2.06 µM (inactive)
- GI50 (PC-3): 2.61 µM (inactive)
- GI50 (RPMI-8226): 1.17 µM (inactive)
- GI50 (RXF 393): 2.62 µM (inactive)
- GI50 (SF-268): 1.8 µM (inactive)
- GI50 (SF-295): 3.51 µM (inactive)
- GI50 (SF-539): 1.88 µM (inactive)
- GI50 (SK-MEL-28): 2.06 µM (inactive)
- GI50 (SK-MEL-2): 3.21 µM (inactive)
- GI50 (SK-MEL-5): 3.1 µM (inactive)
- GI50 (SK-OV-3): 16.9 µM (inactive)
- GI50 (SN12C): 2.49 µM (inactive)
- GI50 (SNB-19): 2.1 µM (inactive)
- GI50 (SNB-75): 2.9 µM (inactive)
- GI50 (SR): 1.29 µM (inactive)
- GI50 (SW-620): 1.92 µM (inactive)
- GI50 (T47D): 1.08 µM (active)
- GI50 (TK-10): 2.26 µM (inactive)
- GI50 (U-251): 2.21 µM (inactive)
- GI50 (UACC-257): 2.5 µM (inactive)
- GI50 (UACC-62): 1.93 µM (inactive)
- GI50 (UO-31): 1.6 µM (inactive)

Structure (SMILES): O=C1/C(=C/c2ccccc2[N+](=O)[O-])N=C(c2ccccc2)N1C1Nc2cc3c(cc2S1)NC(N1C(=O)/C(=C/c2ccccc2[N+](=O)[O-])N=C1c1ccccc1)S3 (configuration not stated)
- GI50 (786-0): 22.3 µM (inactive)
- GI50 (A498): 27.5 µM (inactive)
- GI50 (A549): 12.6 µM (inactive)
- GI50 (ACHN): 28.4 µM (inactive)
- GI50 (BT-549): 40.4 µM (inactive)
- GI50 (CAKI-1): 39.7 µM (inactive)
- GI50 (DU-145): 30.8 µM (inactive)
- GI50 (EKVX): 27.7 µM (inactive)
- GI50 (HCC 2998): 16.7 µM (inactive)
- GI50 (HCT-116): 16 µM (inactive)
- GI50 (HCT-15): 32.8 µM
- GI50 (HL-60): 24 µM (inactive)
- GI50 (HOP-62): 89.5 µM (inactive)
- GI50 (HOP-92): > 100 µM (inactive)
- GI50 (HT-29): 36.2 µM (inactive)
- GI50 (Hs-578T): 50 µM (inactive)
- GI50 (IGROV-1): 55.2 µM (inactive)
- GI50 (K562): 37.1 µM (inactive)
- GI50 (KM12): 52.4 µM (inactive)
- GI50 (LOX IMVI): 35 µM (inactive)
- GI50 (M14): 68.5 µM (inactive)
- GI50 (MCF7): 18.7 µM (inactive)
- GI50 (MDA-MB-231): 61.5 µM (inactive)
- GI50 (MDA-MB-435): 51.6 µM (inactive)
- GI50 (MDA-N): 36.8 µM (inactive)
- GI50 (MOLT-4): 19.3 µM (inactive)
- GI50 (NCI-H226): 31.5 µM (inactive)
- GI50 (NCI-H23): 29 µM (inactive)
- GI50 (NCI-H460): 5.45 µM (inactive)
- GI50 (NCI-H522): 17.3 µM (inactive)
- GI50 (NCI/ADR-RES): 25.3 µM (inactive)
- GI50 (OVCAR-3): 37.2 µM (inactive)
- GI50 (OVCAR-4): 53.5 µM (inactive)
- GI50 (OVCAR-5): > 100 µM (inactive)
- GI50 (OVCAR-8): 39.5 µM (inactive)
- GI50 (PC-3): 32.9 µM (inactive)
- GI50 (RPMI-8226): 18.1 µM (inactive)
- GI50 (RXF 393): > 100 µM (inactive)
- GI50 (SF-268): 47.3 µM (inactive)
- GI50 (SF-295): 63.8 µM (inactive)
- GI50 (SF-539): 44.8 µM (inactive)
- GI50 (SK-MEL-28): > 100 µM (inactive)
- GI50 (SK-MEL-2): 36.8 µM (inactive)
- GI50 (SK-MEL-5): 42.1 µM (inactive)
- GI50 (SNB-75): > 100 µM (inactive)
- GI50 (SR): 8.51 µM (inactive)
- GI50 (SW-620): 50.4 µM (inactive)
- GI50 (T47D): 25.1 µM (inactive)
- GI50 (TK-10): 72.4 µM (inactive)
- GI50 (U-251): 31 µM (inactive)
- GI50 (UACC-257): 91 µM (inactive)
- GI50 (UO-31): 24.1 µM (inactive)

Structure (SMILES): COc1nc(N=P(c2ccccc2)(c2ccccc2)c2ccccc2)cc(=O)n1C
- GI50 (786-0): > 100 µM (inactive)
- GI50 (A498): > 100 µM (inactive)
- GI50 (A549): > 100 µM (inactive)
- GI50 (ACHN): > 100 µM (inactive)
- GI50 (BT-549): > 100 µM (inactive)
- GI50 (CAKI-1): > 100 µM (inactive)
- GI50 (CCRF-CEM): > 100 µM (inactive)
- GI50 (COLO 205): > 100 µM (inactive)
- GI50 (DU-145): > 100 µM (inactive)
- GI50 (EKVX): > 100 µM (inactive)
- GI50 (HCC 2998): > 100 µM (inactive)
- GI50 (HCT-116): > 100 µM (inactive)
- GI50 (HCT-15): > 100 µM
- GI50 (HL-60): > 100 µM (inactive)
- GI50 (HOP-62): > 100 µM (inactive)
- GI50 (HOP-92): > 100 µM (inactive)
- GI50 (HT-29): > 100 µM (inactive)
- GI50 (Hs-578T): > 100 µM (inactive)
- GI50 (IGROV-1): > 100 µM (inactive)
- GI50 (K562): > 100 µM (inactive)
- GI50 (KM12): > 100 µM (inactive)
- GI50 (LOX IMVI): > 100 µM (inactive)
- GI50 (M14): > 100 µM (inactive)
- GI50 (MCF7): > 100 µM (inactive)
- GI50 (MDA-MB-231): > 100 µM (inactive)
- GI50 (MDA-MB-435): > 100 µM (inactive)
- GI50 (MDA-N): > 100 µM (inactive)
- GI50 (MOLT-4): > 100 µM (inactive)
- GI50 (NCI-H226): > 100 µM (inactive)
- GI50 (NCI-H23): > 100 µM (inactive)
- GI50 (NCI-H460): > 100 µM (inactive)
- GI50 (NCI-H522): > 100 µM (inactive)
- GI50 (NCI/ADR-RES): > 100 µM (inactive)
- GI50 (OVCAR-3): > 100 µM (inactive)
- GI50 (OVCAR-4): > 100 µM (inactive)
- GI50 (OVCAR-5): > 100 µM (inactive)
- GI50 (OVCAR-8): > 100 µM (inactive)
- GI50 (PC-3): > 100 µM (inactive)
- GI50 (RPMI-8226): > 100 µM (inactive)
- GI50 (RXF 393): > 100 µM (inactive)
- GI50 (SF-268): > 100 µM (inactive)
- GI50 (SF-295): > 100 µM (inactive)
- GI50 (SF-539): > 100 µM (inactive)
- GI50 (SK-MEL-28): > 100 µM (inactive)
- GI50 (SK-MEL-2): > 100 µM (inactive)
- GI50 (SK-MEL-5): > 100 µM (inactive)
- GI50 (SK-OV-3): > 100 µM (inactive)
- GI50 (SN12C): > 100 µM (inactive)
- GI50 (SNB-19): > 100 µM (inactive)
- GI50 (SNB-75): 54.8 µM (inactive)
- GI50 (SR): 0.0233 µM (active)
- GI50 (SW-620): > 100 µM (inactive)
- GI50 (T47D): > 100 µM (inactive)
- GI50 (TK-10): > 100 µM (inactive)
- GI50 (U-251): > 100 µM (inactive)
- GI50 (UACC-257): > 100 µM (inactive)
- GI50 (UACC-62): > 100 µM (inactive)
- GI50 (UO-31): > 100 µM (inactive)
